The values below come from patent US20090181972A1, “Novel Inhibitors of Cysteine Proteases, the Pharmaceutical Compositions Thereof and their Therapeutic Applications” (priority 2005, published 2009).

One test concerns the target T1, USP5 (Homo sapiens, UniProt P45974).
T1 sequence (P45974 1-858): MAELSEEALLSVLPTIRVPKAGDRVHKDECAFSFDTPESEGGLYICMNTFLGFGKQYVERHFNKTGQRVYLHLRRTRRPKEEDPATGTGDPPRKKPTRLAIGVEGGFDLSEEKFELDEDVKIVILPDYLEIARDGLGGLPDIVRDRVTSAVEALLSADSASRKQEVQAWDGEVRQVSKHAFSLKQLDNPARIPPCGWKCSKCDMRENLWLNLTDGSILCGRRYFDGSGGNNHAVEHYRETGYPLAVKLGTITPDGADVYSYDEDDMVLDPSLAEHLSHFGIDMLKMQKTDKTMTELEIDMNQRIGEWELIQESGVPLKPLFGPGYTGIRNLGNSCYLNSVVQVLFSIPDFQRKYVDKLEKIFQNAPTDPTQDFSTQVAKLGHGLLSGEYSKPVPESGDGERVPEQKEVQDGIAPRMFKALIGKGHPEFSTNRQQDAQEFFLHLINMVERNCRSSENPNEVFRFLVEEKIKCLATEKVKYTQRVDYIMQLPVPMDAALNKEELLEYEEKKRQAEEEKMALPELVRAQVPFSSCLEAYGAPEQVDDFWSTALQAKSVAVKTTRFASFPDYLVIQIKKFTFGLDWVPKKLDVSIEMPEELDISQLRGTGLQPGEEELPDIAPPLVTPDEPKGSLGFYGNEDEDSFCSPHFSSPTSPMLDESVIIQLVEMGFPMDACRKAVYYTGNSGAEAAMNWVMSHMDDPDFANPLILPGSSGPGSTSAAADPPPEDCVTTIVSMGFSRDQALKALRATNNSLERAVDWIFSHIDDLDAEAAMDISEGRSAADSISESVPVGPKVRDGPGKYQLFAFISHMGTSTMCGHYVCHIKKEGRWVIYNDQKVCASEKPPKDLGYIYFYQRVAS
The experiment in a line: USP5 activity assay. Format: biochemical. To be noted: 400 nM Ub-AMC, 300 pM enzyme; pre-incubated 30 minutes at 25° C., 60 minutes at 37° C.; sigmoidal fit; read-out: USP 5. As to the method: USP5 was diluted in USP buffer (50 mM Tris HCl; 0.5 mM EDTA; 5 mM DTT; 0.01% Triton X-100; Bovine Serum Albumin 0.05 mg.ml^−1 pH 7.6). Compounds stocks (100 mM) were stored at -20° C. in DMSO.
Reactions were performed as duplicates in Black LJL 96 well plates (HE microplates; Molecular Devices; 20 μl final reaction volume). The substrate concentration for USP5 was 400 nM Ub-AMC (Boston Biochem). The concentrations of the enzyme (USP5) in specificity assays was 300 pM. The concentrations were determined in order to perform specificity assays under initial velocities at fixed substrate concentration. Compounds were pre-incubated with enzymes for 30 minutes at 25° C. Reactions were initiated by addition of substrate to the plates containing the enzymes (+/− compounds) diluted in assay buffer. Reactions were incubated for 60 minutes at 37° C. Reactions were stopped by adding acetic acid (100 mM final). Readings were performed on a Pherastar Fluorescent Reader (BMG). λ Emission 380 nm; λ Excitation=460 nm. Data (mean values +/− standard deviation) were analyzed as % of control (no compound) and plotted as percentage versus the Log of the compound concentration using GraphPad (Prism). Data were fitted to a sigmoidal model (variable slope).

A further test has as its target T2, Caspase 3 (Homo sapiens, UniProt P42574).
T2 sequence (P42574 29-175 limits assumed): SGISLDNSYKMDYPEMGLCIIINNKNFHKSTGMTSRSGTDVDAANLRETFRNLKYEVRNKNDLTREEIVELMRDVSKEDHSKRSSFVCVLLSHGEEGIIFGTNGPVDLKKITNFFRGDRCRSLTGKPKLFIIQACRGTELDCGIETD
T2 sequence (P42574 176-277 limits assumed): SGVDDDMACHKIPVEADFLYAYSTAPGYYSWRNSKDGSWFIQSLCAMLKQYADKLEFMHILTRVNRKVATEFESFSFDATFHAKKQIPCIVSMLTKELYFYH
The test can be described thus: Caspase 3 activity assay. The note with it: 500 nM Ac-DEVD-AMC, 3.2 nM enzyme; pre-incubated 30 minutes at 25° C., 60 minutes at 37° C.; sigmoidal fit. Format: biochemical. The procedure: Caspase 3 was diluted in Caspase 3 buffer (100 mM Hepes pH 7.5; 10% sucrose; 0.1% CHAPS). Compounds stocks (100 mM) were stored at −20° C. in DMSO. Compounds were tested at the following final concentrations: 100 μM; 33.3 μM; 11.1 μM; 3.7 μM; 1.23 μM; 412 nM; 137 nM; 45.7 nM; 15.2 nM; 5 nM. Reactions were performed as duplicates in Black LJL 96 well plates (HE microplates; Molecular Devices; 20 μl final reaction volume). The substrate concentration for caspase 3 specificity assay was 500 nM (Ac-DEVD-AMC; Promega). The concentration of the enzyme (Caspase 3) in specificity assays was 3.2 nM. The concentrations were determined in order to perform specificity assays under initial velocities at fixed substrate concentration. Compounds were pre-incubated with enzymes for 30 minutes at 25° C. Reactions were initiated by addition of substrate to the plates containing the enzymes (+/− compounds) diluted in assay buffer. Reactions were incubated for 60 minutes at 37° C. Reactions were stopped by adding acetic acid (100 mM final). Readings were performed on a Pherastar Fluorescent Reader (BMG). δ Emission 380 nm; δ Excitation=460 nm. Data (mean values +/− standard deviation) were analyzed as % of control (no compound) and plotted as percentage versus the Log of the compound concentration using GraphPad (Prism). Data were fitted to a sigmoidal model (variable slope).

“6-(7)-Chloro-1-methyl-2,3,4,10,10a-pentaaza-cyclopenta[b]fluoren-9-one [Example 3/A]”: the IC50 at USP5 was 1.54 µM; at Caspase 3, 1.51 µM. For `CC(C)c1nnc2nc3c(nn12)C(=O)c1ccccc1-3` [Example 1l/A, 1-lsopropyl-2,3,4,10,10a-pentaaza-cyclopenta[b]fluoren-9-one], in that order: 3.9 µM and 5 µM. Taken in the same sequence, the figures for `CCc1nnc2nc3c(nn12)C(=O)c1cc(OC)c(OC)cc1-3` [Example 5b/A, 1-Ethyl-6,7-dimethoxy-2,3,4,10,10a-pentaaza-cyclopenta[b]fluoren-9-one] were 4.8 µM and 5.2 µM.

With `CCc1nnc2nc3c(nn12)-c1cc(OC)c(OC)cc1C3=O` [Example 5b/B, 3-Ethyl-6,7-dimethoxy-1,2,3a,4,10-pentaaza-cyclopenta[b]fluoren-9-one], the IC50 against Caspase 3 was 0.314 µM.
